Reference: patent US5391540A, “Substituted pyridine compounds” (Rohm and Haas Company, priority 1993, dated 1995)
“And” between values parts separate entries of the source, which are not always exact repeats. Equal values may be shown once.

How the values were obtained:
Format in all cases: in vivo
Annual Bluegrass = assay: Pre-emergent herbicidal activity (Table A); conditions: pre-emergence, Anbg, 11.2 kg/ha, 10-14 days, read-out: herbicidal rating (% inhibition)
Outline: (§1)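 Compound incorporated into the cover-soil layer over sown seed at a rate equivalent to 11.2 kg/ha (acetone or water carrier). Greenhouse growth with watering as needed; ratings reflect percent inhibition per species, recorded around day 11 (range 10–14).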

Indian Mustard = assay: Pre-emergent herbicidal activity (Table A); conditions: Brassica juncea, pre-emergence, Inmu, 11.2 kg/ha, 10-14 days, read-out: herbicidal rating (% inhibition)
Outline: as §1

Wild Buckwheat = assay: Pre-emergent herbicidal activity (Table A); conditions: Fallopia convolvulus, pre-emergence, Wibw, 11.2 kg/ha, 10-14 days, read-out: herbicidal rating (% inhibition)
Outline: as §1

Seedling Johnsongrass = assay: Pre-emergent herbicidal activity (Table A); conditions: Sorghum halepense, pre-emergence, Sejg, 11.2 kg/ha, 10-14 days, read-out: herbicidal rating (% inhibition)
Outline: as §1

Wibw = assay: plant injury after spraying emerged plants (Table D); design: scale not given here
Outline: (§2)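 Seeds or vegetative propagules of annual and perennial species were pressed into steam-sterilized silt loam, covered with 1.27 cm of topsoil/peat-moss/vermiculite mix, and grown on greenhouse benches with subirrigation. Injury was scored on emerged plants after spraying.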

Hese = assay: as above; design: scale not given here
Outline: as §2

Vele = assay: as above; design: scale not given here
Outline: as §2

Rape = assay: as above; design: scale not given here
From the text: (§3) Topsoil (silt loam) is sieved through a screen having 1.27 cm openings. In some of the tests the soil was mixed with fertilizer (1225 g/cu. m of 12/5/9 containing isobutylidene diurea), while in other tests the fertilizer was omitted. This mixture is steam sterilized and then placed in aluminum pans 6.985 cm deep having ten holes in the bottom each 0.635 cm in diameter. The soil mixture is compacted to a depth of 1.27 cm. from the top of the pan. A predetermined number of seeds of each of several dicotyledonous and monocotyledonous annual plant species and/or vegetative propagules for the perennial plant species are placed on the soil and pressed into the soil surface. The seeds and/or vegetative propagules are covered with 1.27 cm of a mixture of 50% topsoil and 50% of a mixture of Canadian sphagnum peat moss, vermiculite and a wetting agent. The pans are then placed on a capillary mat on a greenhouse bench and subirrigated as needed. After the plants reach the desired stage (9 to 14 days, 1 to 3 true leaf stage), each pan (except the control pans) is removed to a spraying chamber and sprayed by means of an atomizer, operating at a spray pressure of 170.3 kPa ([…]) at the application rates noted in Table D. In the spray solution is an amount of an emulsifying agent mixture (35% butylamine salt of dodecylbenzenesulfonic acid and 65% tall oil condensed with ethylene oxide in the ratio of 11 mols of ethylene oxide/mol of tall oil) to give a spray solution or suspension. The spray solution or suspension contains a sufficient amount of the candidate chemical in order to give application rates of the active ingredient corresponding to those shown in Table D below while applying a total amount of solution or suspension equivalent to 1870 L/Ha (200 gallons/acre). The pans are returned to the greenhouse and watered as before and the injury to the plants as compared to the control pans is observed at approximately 10-14 days (usually 11 days).
(§4) In the following Table D the legends used to identify the plant species are the same as those used in the preceding Table B.

Cotz = assay: as above; design: scale not given here
From the text: as §3, §4

Dobr = assay: as above
From the text: as §3, §4

Jiwe = assay: as above; design: scale not given here
From the text: as §3, §4

Structure (SMILES)	inhibition at 11200 g/ha (Annual Bluegrass)	inhibition at 11200 g/ha (Indian Mustard)	inhibition at 11200 g/ha (Wild Buckwheat)	inhibition at 11200 g/ha (Seedling Johnsongrass)	plant injury rating, Wibw (Wibw; 0.2803 kg/ha)	plant injury rating, Wibw (Wibw; 1.1210 kg/ha)	plant injury rating, Wibw (Wibw; 5.6050 kg/ha)	plant injury rating, Hese (Hese; 0.2803 kg/ha)	plant injury rating, Hese (Hese; 1.1210 kg/ha)	plant injury rating, Hese (Hese; 5.6050 kg/ha)	plant injury rating, Vele (Vele; 0.2803 kg/ha)	plant injury rating, Vele (Vele; 1.1210 kg/ha)	plant injury rating, Vele (Vele; 5.6050 kg/ha)	plant injury rating, Rape (Rape; 0.2803 kg/ha)	plant injury rating, Rape (Rape; 1.1210 kg/ha)	plant injury rating, Rape (Rape; 5.6050 kg/ha)	plant injury rating, Cotz (Cotz; 0.2803 kg/ha)	plant injury rating, Cotz (Cotz; 1.1210 kg/ha)	plant injury rating, Dobr (Dobr; 1.1210 kg/ha)	plant injury rating, Dobr (Dobr; 5.6050 kg/ha)	other results
COC(=O)c1c(OC)nc(C(F)(F)F)c(C(=O)SC)c1C1CCC1 [Compound 137, 3-pyridinecarboxylic acid, 4-cyclobuty1-2-methoxy-5-[(methylthio)carbonyl]-6-(trifluoromethyl)-, methyl ester]	75 to 100%	75 to 100%	75 to 100%	75 to 100%	0	3	2	1	3	3	3	3	2	3	3	3	1	2	1	1	plant injury rating, Cotz (Cotz; 5.6050 kg/ha): 2; plant injury rating, Dobr (Dobr; 0.2803 kg/ha): 0
COC(=O)c1c(OC)nc(C(F)(F)F)c(C(=O)Cl)c1CC1CC1 [Compound 113, 3-pyridinecarboxylic acid, 5-(chlorocarbonyl)-4-(cyclopropylmethyl)-2-methoxy-6-(trifluoromethyl)-, methyl ester]	75 to 100%	0 to 24%	25 to 49%	75 to 100%	0	0	1	0	0	1	0	0	1	0	0	1	0	0	0	0	plant injury rating, Cotz (Cotz; 5.6050 kg/ha): 0; plant injury rating, Dobr (Dobr; 0.2803 kg/ha): 0
COC(=O)c1c(OC)nc(C(F)(F)F)c(C2=NCCS2)c1CC(C)C [Compound 50, 3-pyridinecarboxylic acid, 5-(4,5-dihydro-2-thiazolyl)-2-methoxy-4-(2-methylpropyl)-6-(trifluoromethyl)-, methyl ester]					3										3		2		0		plant injury rating, Wibw (Wibw; 0.0701 kg/ha): 1; plant injury rating, Wibw (Wibw; 5.3808 kg/ha): 3; plant injury rating, Hese (Hese; 0.0701 kg/ha): 2; plant injury rating, Hese (Hese; 5.3808 kg/ha): 3; plant injury rating, Vele (Vele; 0.0701 kg/ha): 2; plant injury rating, Vele (Vele; 5.3808 kg/ha): 3; plant injury rating, Rape (Rape; 5.3808 kg/ha): 3; plant injury rating, Jiwe (Jiwe; 0.0701 kg/ha): 2; plant injury rating, Jiwe (Jiwe; 0.2803 kg/ha): 2; plant injury rating, Jiwe (Jiwe; 1.1210 kg/ha): 2 and 3; plant injury rating, Jiwe (Jiwe; 5.3808 kg/ha): 3; plant injury rating, Cotz (Cotz; 0.0701 kg/ha): 1; plant injury rating, Cotz (Cotz; 5.3808 kg/ha): 3; plant injury rating, Dobr (Dobr; 0.0701 kg/ha): 0; plant injury rating, Dobr (Dobr; 5.3808 kg/ha): 0
COC(=O)c1c(OC)nc(C(F)(F)Cl)c(C(=O)OC)c1CC(C)C [Compound 30, 3,5-pyridinedicarboxylic acid, 2-(chlorodifluoromethyl)-6-methoxy-4-(2-methylpropyl)-, dimethyl ester]						1	1		1	1		1	1						0	0	plant injury rating, Wibw (Wibw; 0.5605 kg/ha): 1; plant injury rating, Wibw (Wibw; 2.8025 kg/ha): 1; plant injury rating, Wibw (Wibw; 8.4075 kg/ha): 1; plant injury rating, Wibw (Wibw; 11.2100 kg/ha): 2; plant injury rating, Hese (Hese; 0.5605 kg/ha): 1; plant injury rating, Hese (Hese; 2.8025 kg/ha): 1; plant injury rating, Hese (Hese; 8.4075 kg/ha): 2; plant injury rating, Hese (Hese; 11.2100 kg/ha): 1; plant injury rating, Vele (Vele; 0.5605 kg/ha): 1; plant injury rating, Vele (Vele; 2.8025 kg/ha): 1; plant injury rating, Vele (Vele; 8.4075 kg/ha): 2; plant injury rating, Vele (Vele; 11.2100 kg/ha): 1; plant injury rating, Dobr (Dobr; 0.5605 kg/ha): 0; plant injury rating, Dobr (Dobr; 2.8025 kg/ha): 0; plant injury rating, Dobr (Dobr; 8.4075 kg/ha): 0; plant injury rating, Dobr (Dobr; 11.2100 kg/ha): 0
